Reference: US20230256059A1, “COMPOSITIONS FOR TREATING RESPIRATORY TRACT INFECTION AND USES THEREOF” (Lateral IP Pty Ltd, priority 2020, published 2023)
Like-named read-outs stand apart in the source and are kept apart here. Bridge positions count the residues as written; N and C are the ends. Peptide text beside a SMILES is read from it.

Key:
[1] = tested on: respiratory tract infection by a virus; assay: Case studies: oral AOD9604 in subjects with flu-like symptoms; assay type: in vivo, human
From the text: The subject is a person who presented with flu-like symptoms. The subject reported to have been free of flu-like symptoms over the past 8 years.
The subject developed a very sore throat. On awakening the next day, the sore throat was more severe and their nose was running (rhinorrhea) and becoming worse throughout the day. Other symptoms that developed during the day included: • a persistent deep phlegmy cough; • high temperature; • body sweats; • chills; • muscle soreness; and • fatigue.
Later that evening, the subject developed a loss of appetite, and an exacerbation of chills, body sweats, rhinorrhoea and persistent coughing. At around 8 pm that evening, the subject was administered ˜1 mg AOD9604 (SEQ ID NO:2), orally.
The subject is a person who in the afternoon presented with the flu, with symptoms including a persistent deep phlegmy cough, high temperature, body sweats, chills, muscle soreness and fatigue. The subject was administered ˜1 mg AOD9604 (SEQ ID NO:2), orally. The subject recalls sleeping well that evening.

HKx31 (H3N2) IAV [2] = tested on: HKx31 (H3N2) IAV; parameters: species or system C57BL/6 mice; conditions: mouse, in vivo; for IAV-associated lethality: 5 mg/kg
HKx31 (H3N2) IAV [3] = assay: Titres of infectious virus in lung homogenates by standard plaque assay on MDCK cells; assay type: in vivo, C57BL/6 mice; conditions: day 4 post-infection; for reduction in levels of infectious virus in lung tissues: daily therapeutic 20 mg/kg intranasal from day 1
Method: (§1) For virus infection studies, groups of 8 male C57BL/6 mice were randomized. […] Bronchoalveolar lavage (BAL) fluid was immediately obtained following euthanisation by flushing the lungs three times with 1 mL of PBS. Lungs were then removed and frozen immediately in liquid nitrogen. Titres of infectious virus in lung homogenates were determined by standard plaque assay on MDCK cells.

[4] = tested on: IL-6, MCP-1/CCL2, IFNγ, IL-10, IL-12p70, TNFα, IFNα, IFNβ, IFN λ2/3; assay: Quantification of cytokines in mouse BAL fluid and sera (CBA, ELISA); assay type: in vivo, C57BL/6 mice; conditions: day 4 post-infection
Method: as §1
To detect cytokines, BAL fluid was collected and stored at −80° C. Levels of IL-6, MCP-1/CCL2, IFNγ, IL-10, IL-12p70, and TNFα proteins were determined by cytokine bead array (CBA) using the mouse inflammation kit (Becton Dickinson). Levels of mouse IFNα were determined by sandwich ELISA using mouse monoclonal clone F18 (Thermo Scientific) and rabbit polyclonal antibodies (PBL) (Thomas et al., 2014). Levels of mouse IFNβ were determined by sandwich ELISA using mouse monoclonal clone 7F-D3 (Abcam) and rabbit polyclonal antibodies (PBL) (Thomas et al., 2014). Mouse IFN λ2/3 was quantified by ELISA (R&D Systems).

BAL cells = assay type: in vivo, C57BL/6 mice; conditions: day 4 post-infection
HKx31 (H3N2) IAV [5] = assay: Assessment of lung oedema and vascular leakage; parameters: species or system C57BL/6 mice; conditions: mouse, in vivo
HKx31 = HKx31 infection of human PBECs, infectious virus in cell supernatants; assay type: cell-based; conditions: 24 hours following HKx31 infection
SARS-CoV-2 = SARS-CoV-2 infection of Vero cells, cytopathic effect inhibition assay; assay type: cell-based
[6] = 20 mg/kg intranasal every 48 h
[7] = cited from earlier work
[8] = daily therapeutic 20 mg/kg intranasal from day 1
[9] = prophylactic 20 mg/kg intranasal, every 48 h

CC[C@H](C)[C@H](NC(=O)[C@H](CCCNC(=N)N)NC(=O)[C@H](CC(C)C)NC(=O)[C@@H](N)Cc1ccc(O)cc1)C(=O)N[C@H](C(=O)N[C@@H](CCC(N)=O)C(=O)N[C@H]1CSSC[C@@H](C(=O)NCC(=O)N[C@@H](Cc2ccccc2)C(=O)O)NC(=O)[C@H](CO)NC(=O)CNC(=O)[C@H](CCC(=O)O)NC(=O)[C@H](C(C)C)NC(=O)[C@H](CO)NC(=O)[C@H](CCCNC(=N)N)NC1=O)C(C)C [LAT8881, H-YLRIVQCRSVEGSCGF-OH] (H-YLRIVQCRSVEGSCGF-OH; disulfide 7-14)
remaining symptoms on waking about 7 hours later ([1]; Case study 1: ~1 mg orally): the only remaining symptoms were a runny nose and a slight cough | symptoms of the flu by the morning ([1]; Case study 2: ~1 mg orally): all symptoms of the flu had disappeared except for a slight runny nose and a dry cough | time until reported symptom-free ([1]; Case study 2: ~1 mg orally, after the morning following dosing): around 24 hours | alleviation of symptoms of respiratory tract infection (conclusion of case studies) ([1]; ~1 mg orally, two case studies): capable of alleviating the symptoms of respiratory tract infection by a virus | clinical signs of disease (weight loss, limited mobility, laboured breathing) (HKx31 (H3N2) IAV [2]): reduced clinical signs of disease including weight loss | delay of IAV-associated lethality (HKx31 (H3N2) IAV [2]): 48 to 72 h | onset of clinical signs of severe disease (weight loss, limited mobility, laboured breathing) (HKx31 (H3N2) IAV [2]): delayed the onset of clinical signs of severe disease | survival of mice (from 0% in PBS controls) (HKx31 (H3N2) IAV [2]): approximately 30% | IAV-associated lethality (HKx31 (H3N2) IAV [2]): delayed IAV-associated lethality | reduction in levels of infectious virus in lung tissues (HKx31 (H3N2) IAV [3]): 1.5 fold | reduction in infectious viral loads in the lung (HKx31 (H3N2) IAV [3]; prophylactic: 20 mg/kg intranasal 24 h prior to infection, then every 48 h): 1.6 fold | IL-6 in the BAL fluid [4, 8]: significantly reduced | TNFα levels in BAL fluid [4, 8]: less profound reduction | concentration of IFN λ2/3 in BAL fluid [4, 8]: not significantly different | concentration of IFNα in BAL fluid [4, 8]: not significantly different | concentration of IFNβ in BAL fluid [4, 8]: not significantly different | concentration of IL-10 in BAL fluid [4, 8]: not significantly different | concentration of IL-12p70 in BAL fluid [4, 8]: not significantly different | levels of CCL2 in BAL fluid [4, 8]: limited levels of CCL2 | reduction of IFNγ in BAL fluid [4, 8]: 2 fold | reduction of IL-6 in the serum [4, 8]: approximately 1.6 fold | concentration of CCL2 in BAL fluid [4, 9]: comparable with PBS-treated IAV infected controls | concentration of IL-6 in BAL fluid [4, 9]: comparable with PBS-treated IAV infected controls | concentration of IL-10 in BAL fluid [4, 9]: comparable with PBS-treated IAV infected controls | concentration of IL-12p70 in BAL fluid [4, 9]: comparable with PBS-treated IAV infected controls | concentration of TNFα in BAL fluid [4, 9]: comparable with PBS-treated IAV infected controls | levels of IFN λ2/3 [4, 9]: no significant differences | levels of IFNα [4, 9]: no significant differences | levels of IFNβ [4, 9]: no significant differences | reduction of IFNγ in BAL fluid [4, 9]: 2 fold | reduction of IL-6 in the serum [4, 9]: 1.5 fold | inflammatory Ly6C+ macrophages in the airways (BAL cells; [8]): significantly fewer | neutrophils in BAL (BAL cells; [8]): significantly fewer | total BAL cellularity (BAL cells; [8]): significantly reduced | total numbers of dendritic cells (BAL cells; [8]): comparable to PBS-treated infected controls | dendritic cells in the airways (BAL cells; [9]): no significant numerical difference | inflammatory Ly6C+ macrophages in the airways (BAL cells; [9]): no significant numerical difference | leukocyte cell death (Annexin V and PI staining of BAL cells) (BAL cells; [9]): no significant differences | macrophages in BAL (BAL cells; [9]): significantly fewer | neutrophils in BAL (BAL cells; [9]): significantly fewer | total BAL cellularity (BAL cells; [9]): significantly reduced | BAL fluid protein concentrations (vascular leakage) (HKx31 (H3N2) IAV [5]): significantly reduced | lung wet-to-dry ratios (HKx31 (H3N2) IAV [5]): no significant differences | levels of infectious virus in cell supernatants (HKx31): no significant impact | SARS-CoV-2 infection of Vero cells (cytopathic effect inhibition) (SARS-CoV-2): did not alter SARS-CoV-2 infection of Vero cells | weight loss or clinical signs of disease in uninfected mice [6]: did not result in weight loss or any clinical signs of disease

H-CRSVEGSCGF-OH (cysteine pairing not given here; listed as Homo sapiens) [LAT9991F]
IAV-associated lethality (HKx31 (H3N2) IAV [2]): delayed IAV-associated lethality | reduction in levels of infectious virus in lung tissues (HKx31 (H3N2) IAV [3]): 2.4 fold | TNFα levels in BAL fluid [4, 8]: less profound reduction | concentration of IFN λ2/3 in BAL fluid [4, 8]: not significantly different | concentration of IFNα in BAL fluid [4, 8]: not significantly different | concentration of IFNβ in BAL fluid [4, 8]: not significantly different | concentration of IL-10 in BAL fluid [4, 8]: not significantly different | concentration of IL-12p70 in BAL fluid [4, 8]: not significantly different | reduction of IFNγ in BAL fluid [4, 8]: 2.3 fold | reduction of IL-6 in the serum [4, 8]: approximately 1.6 fold | inflammatory Ly6C+ macrophages in the airways (BAL cells; [8]): significantly fewer | neutrophils in BAL (BAL cells; [8]): significantly fewer | numbers of macrophages in BAL (BAL cells; [8]): reduced numbers of macrophages | total BAL cellularity (BAL cells; [8]): significantly reduced | total numbers of dendritic cells (BAL cells; [8]): comparable to PBS-treated infected controls | lung wet-to-dry ratios (HKx31 (H3N2) IAV [5]): no significant differences | stability as metabolite in human serum [7]: known stable metabolite of LAT8881 in human serum
